Results on nine compounds are retold here after patent publication US9029557B2, “Labeled A4B2 ligands and methods therefor” (priority 2004, dated 2015).

Where two headings read alike, the source gives them in different places.

In data set [1] the target is α4β2 nAChRs (Homo sapiens, UniProt P17787+P43681). Conditions: comparison agents; cited from earlier work.
The target in data set [2] is T1, α4β2 receptors (Homo sapiens, UniProt P17787+P43681). Also noted: host or cells: human brain in vivo (SPECT), work done elsewhere. Conditions: human studies; cited from earlier work.
T1 sequence (P43681 29-627 limits assumed): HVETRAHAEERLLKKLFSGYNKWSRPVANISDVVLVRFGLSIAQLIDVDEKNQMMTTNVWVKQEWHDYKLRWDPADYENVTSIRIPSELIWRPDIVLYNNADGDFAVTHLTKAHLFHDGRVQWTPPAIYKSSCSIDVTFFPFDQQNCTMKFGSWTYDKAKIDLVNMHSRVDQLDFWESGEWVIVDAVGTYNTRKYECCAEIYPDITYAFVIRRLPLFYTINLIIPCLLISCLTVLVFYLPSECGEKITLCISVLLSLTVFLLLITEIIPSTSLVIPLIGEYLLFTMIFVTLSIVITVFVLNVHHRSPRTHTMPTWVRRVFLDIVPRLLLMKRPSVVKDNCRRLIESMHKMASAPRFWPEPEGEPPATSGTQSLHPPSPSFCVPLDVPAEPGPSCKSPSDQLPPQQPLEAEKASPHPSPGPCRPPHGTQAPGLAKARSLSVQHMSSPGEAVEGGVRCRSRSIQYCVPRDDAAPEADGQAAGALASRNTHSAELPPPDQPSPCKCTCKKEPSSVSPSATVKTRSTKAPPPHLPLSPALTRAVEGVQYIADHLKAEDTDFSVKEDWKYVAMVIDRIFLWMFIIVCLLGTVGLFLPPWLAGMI
T1 sequence (P17787 26-502): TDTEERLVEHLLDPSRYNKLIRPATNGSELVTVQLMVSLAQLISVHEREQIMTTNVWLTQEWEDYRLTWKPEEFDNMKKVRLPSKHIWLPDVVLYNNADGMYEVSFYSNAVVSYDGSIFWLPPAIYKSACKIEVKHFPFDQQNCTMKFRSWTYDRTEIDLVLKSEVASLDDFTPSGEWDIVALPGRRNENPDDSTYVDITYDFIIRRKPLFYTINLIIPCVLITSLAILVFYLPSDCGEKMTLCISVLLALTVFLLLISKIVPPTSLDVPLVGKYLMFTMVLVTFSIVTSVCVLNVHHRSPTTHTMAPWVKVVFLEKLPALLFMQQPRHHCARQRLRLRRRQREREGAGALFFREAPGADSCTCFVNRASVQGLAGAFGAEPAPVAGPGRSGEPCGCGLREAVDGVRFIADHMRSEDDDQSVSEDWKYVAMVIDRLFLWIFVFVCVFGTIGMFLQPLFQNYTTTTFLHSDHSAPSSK
Data set [3] concerns the target T2, α4β2 nAChRs (Rattus norvegicus, UniProt P09483+P12390). Conditions: rat PET, cerebellum as reference region.
Data set [4] has as its target T3, α4β2 receptor (Rattus norvegicus, UniProt P09483+P12390). The note with it: for % ID/g Blood / % ID/g Cerebellum / % ID/g Cortex / % ID/g Thalamus: i.v. 3.7 MBq. The text has this: The animals were allowed to recover from anesthesia and had free access to food and water. […] Thalamus, Ctx, cerebellum, and blood were isolated from each rat and placed in preweighed tubes and were counted for 18F radioactivity.

In data set [5] the test system is α4β2 receptor. The method, then:
The male rhesus monkey (12 kg) was anesthetized using ketamine (10 mg/kg) and xylazine (0.5 mg/kg) and was subsequently maintained on 0.5%-1.5% isoflurane. Two intravenous catheters were placed, one on each arm, for purposes of administration of the radiopharmaceutical and for obtaining blood samples during the study. The head of the animal was placed in the gantry of an ECAT EXACT HR PET scanner and positioned in place with adhesive tape as described previously. A transmission scan using a 68Ge/68Ga rod source was acquired before administration of the radiopharmaceutical to correct for tissue attenuation of the coincident radiation.
Data in the final form are expressed in units of the percentage injected dose per milliliter (% ID/mL) or kilobecquerels per milliliter (kBq/mL). […] Time-activity curves were obtained for all these regions. […] This MRI template of the rhesus (Macaca mulatta) brain is an average of 6 monkeys with T1-weighted MR scans. Postimage processing removed the skull and scalp from the template (courtesy of University of Wisconsin-Madison).

In data set [6] the target is α4β2 receptor sites (Rattus norvegicus, UniProt P09483+P12390). The method, then:
Coronal and horizontal brain slices ([…]) were obtained from male Sprague-Dawley rats. Sets of brain slices were preincubated in buffer (50 mmol/L Tris HCl containing 120 mmol/L NaCl, 5 mmol/L KCl, 2.5 mmol/L CaCl2, 1 mmol/L MgCl2, pH 7.4) for 10 min (26). […] Nonspecific binding was measured in the presence of […] (weighed as nicotine ditartarate). In some experiments, a lower concentration of nicotine (10 μmol/L) was also used. After incubation, slides were washed twice (1 min each) with ice-cold Tris HCl buffer, pH 7.4, followed by a quick rinse in cold deionized water. The slides were then air dried and apposed to phosphor screens overnight and read by the Cyclone Phosphor Imaging System (Packard Instruments Co).

Data set [7] concerns the target T4, rat brain α4β2 receptors (Rattus norvegicus, UniProt P09483+P12390).
T4 construct: The brains from male Sprague-Dawley rats (n=4 per group) were extracted and frozen; from tissue; host or cells: rat brain (Sprague-Dawley)
The data set is described as follows: Brain homogenate binding assay using 3H-cytisine. Conditions: read-out: Binding affinity Ki for rat brain α4β2 receptors.

The target of data set [8] is T3, α4β2 receptor. In words: Displacement of 18F-nifene bound in rat brain slices. In kind it is binding. The note with it: 10 nM. Also noted: The brains from male Sprague-Dawley rats (n=4 per group) were extracted and frozen; from tissue; host or cells: rat brain (Sprague-Dawley). A general note: Displacement assays read how much labelled ligand stays bound in the presence of the test substance.

In data set [9] the target is T1, α4β2 receptors. The data set is described as follows: Affinity of Niofene. It counts as binding.
The target in data set [10] is alpha4-beta2 receptors (Rattus norvegicus, UniProt P09483+P12390). The note with it: nicotine 60 μM, horizontal rat brain slices.
Chain of alpha4-beta2 receptors (P09483 31-630): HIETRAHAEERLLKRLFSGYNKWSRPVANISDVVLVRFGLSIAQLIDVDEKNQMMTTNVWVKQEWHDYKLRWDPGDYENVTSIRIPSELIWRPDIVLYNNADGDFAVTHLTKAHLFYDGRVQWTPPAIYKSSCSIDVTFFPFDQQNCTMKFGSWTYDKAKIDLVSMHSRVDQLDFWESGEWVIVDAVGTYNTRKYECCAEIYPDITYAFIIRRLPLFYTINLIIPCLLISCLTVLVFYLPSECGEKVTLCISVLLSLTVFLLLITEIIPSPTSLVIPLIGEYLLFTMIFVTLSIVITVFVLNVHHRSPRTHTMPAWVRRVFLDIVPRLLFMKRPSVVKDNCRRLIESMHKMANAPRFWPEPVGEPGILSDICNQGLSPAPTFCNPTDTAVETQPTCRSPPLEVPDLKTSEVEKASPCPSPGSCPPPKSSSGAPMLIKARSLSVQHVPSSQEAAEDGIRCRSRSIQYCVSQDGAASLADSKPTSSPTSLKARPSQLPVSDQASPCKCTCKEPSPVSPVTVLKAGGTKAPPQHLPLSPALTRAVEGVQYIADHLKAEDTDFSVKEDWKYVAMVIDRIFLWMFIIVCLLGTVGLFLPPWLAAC
Chain of alpha4-beta2 receptors (P12390 25-500): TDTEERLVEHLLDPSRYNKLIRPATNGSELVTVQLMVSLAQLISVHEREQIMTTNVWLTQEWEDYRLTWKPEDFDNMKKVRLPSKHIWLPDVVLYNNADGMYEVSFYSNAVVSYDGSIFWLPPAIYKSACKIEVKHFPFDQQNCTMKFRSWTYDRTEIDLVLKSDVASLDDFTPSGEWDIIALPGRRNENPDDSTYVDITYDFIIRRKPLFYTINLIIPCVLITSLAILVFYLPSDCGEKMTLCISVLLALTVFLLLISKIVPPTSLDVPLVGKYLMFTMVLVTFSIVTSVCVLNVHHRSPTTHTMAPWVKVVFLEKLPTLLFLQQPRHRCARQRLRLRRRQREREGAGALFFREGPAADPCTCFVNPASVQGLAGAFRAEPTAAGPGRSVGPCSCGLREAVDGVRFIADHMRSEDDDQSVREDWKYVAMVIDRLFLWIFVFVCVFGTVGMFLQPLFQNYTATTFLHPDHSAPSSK
For data set [11], the target named is T3, α4β2 receptor. In words: Autoradiography of 123I-niodene in rat brain sections. It counts as binding. The arrangement: The brains from male Sprague-Dawley rats (n=4 per group) were extracted and frozen; from tissue; host or cells: rat brain (Sprague-Dawley). Conditions: low specific activity 123I-niodene, 5 nM.
For data set [12], the target named is T5, α7 nAChRs (Rattus norvegicus, UniProt Q05941).
T5 construct: The brains from male Sprague-Dawley rats (n=4 per group) were extracted and frozen; from tissue; host or cells: rat brain slices (VLG, SuG)
T5 sequence (Q05941 23-502): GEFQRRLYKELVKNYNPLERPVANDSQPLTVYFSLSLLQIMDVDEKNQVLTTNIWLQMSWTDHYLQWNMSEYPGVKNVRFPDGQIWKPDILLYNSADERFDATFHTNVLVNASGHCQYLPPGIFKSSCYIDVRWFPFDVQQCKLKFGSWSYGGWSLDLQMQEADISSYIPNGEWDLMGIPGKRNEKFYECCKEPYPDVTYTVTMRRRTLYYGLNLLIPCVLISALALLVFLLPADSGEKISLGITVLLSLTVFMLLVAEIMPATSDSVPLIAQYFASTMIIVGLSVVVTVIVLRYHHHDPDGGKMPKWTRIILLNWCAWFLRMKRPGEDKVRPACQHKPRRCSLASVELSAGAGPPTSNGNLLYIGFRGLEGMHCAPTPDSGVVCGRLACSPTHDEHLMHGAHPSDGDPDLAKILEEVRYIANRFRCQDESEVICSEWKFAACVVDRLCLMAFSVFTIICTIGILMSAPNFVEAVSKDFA
In words: 125I-α-bungarotoxin binding competition in rat brain slices. The note with it: up to a concentration of 30 nmol/L. The method, then: (§1) In vitro binding affinity of nifrolidine was measured in rat brain slices labeled with 125I-iodoepibatidine (125I-IEB) or 125I-α-bungarotoxin. The brains from male Sprague-Dawley rats (n=4 per group) were extracted and frozen in isopentane at […].
(§2) Coronal sections (20-μm thick) were prepared from 4 brain levels on a cryostat at […]. […] Competition studies were performed by incubating alternate sections with 125IIEB in the absence or presence of cytisine (200 nmol/L) and nicotine (300 μmol/L) and various concentrations of nifrolidine (0-30 nmol/L). Slides were then rinsed twice for 10 min in ice-cold buffer, dipped briefly in ice-cold water, blown dry, and laid out for autoradiography along with 125I plastic standards of known radioactivity (FIG. 3). […]
(§3) Autoradiograms were quantified with a computer-based image analysis system (MCID; Imaging Research) using calibrated standards of reference. A calibration curve of to optical density against radioligand concentration (fmol/mg tissue) was constructed using values of known radioactivity. Optical densities in discrete regions of the autoradiographic images were measured, and corresponding values of radioactivity were determined by interpolation from the calibration curve. Specific binding values in each region were determined by subtracting binding in the presence of excess inhibitor from total binding values. […]

Data set [13] concerns the target T6, α3β4 sites (Rattus norvegicus, UniProt P04757+P12392).
T6 construct: The brains from male Sprague-Dawley rats (n=4 per group) were extracted and frozen; from tissue; host or cells: rat brain slices (pineal, interpeduncular nucleus, medial habenula)
The data set is described as follows: In vitro binding affinity, inhibition of 125I-IEB in rat brain slices (autoradiography), α3β4 sites. Conditions: 125I-IEB in presence of 200 nmol/L cytisine. The method, then: as §1, §2, §3

For data set [14], the target named is T7, α3β2 sites (Rattus norvegicus, UniProt P04757+P12390).
T7 construct: The brains from male Sprague-Dawley rats (n=4 per group) were extracted and frozen; from tissue; host or cells: rat brain slices (DLG, SuG, optic tract)
T7 sequence (P04757 26-499): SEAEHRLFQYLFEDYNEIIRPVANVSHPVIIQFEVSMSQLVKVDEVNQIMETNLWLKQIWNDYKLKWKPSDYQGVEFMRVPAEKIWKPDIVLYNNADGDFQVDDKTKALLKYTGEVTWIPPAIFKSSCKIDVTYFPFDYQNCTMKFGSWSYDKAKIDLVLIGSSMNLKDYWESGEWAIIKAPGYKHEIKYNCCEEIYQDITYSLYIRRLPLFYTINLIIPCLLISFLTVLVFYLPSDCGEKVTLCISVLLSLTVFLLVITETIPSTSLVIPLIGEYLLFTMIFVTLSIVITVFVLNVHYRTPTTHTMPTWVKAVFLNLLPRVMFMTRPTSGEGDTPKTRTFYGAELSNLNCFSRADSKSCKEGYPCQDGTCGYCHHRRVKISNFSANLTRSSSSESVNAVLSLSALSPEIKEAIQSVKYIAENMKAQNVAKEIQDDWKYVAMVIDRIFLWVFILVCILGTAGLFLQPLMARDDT
T7 sequence (P12390 25-500): as the sequence (P12390 25-500) above
The data set is described as follows: In vitro binding affinity, inhibition of 125I-IEB in rat brain slices (autoradiography), α3β2 sites. The note with it: 125I-IEB in presence of 200 nmol/L cytisine. The method, then:
as §1, §2, §3

The target in data set [15] is T2, α4β2 nAChRs. The data set is described as follows: In vitro binding affinity, inhibition of 125I-IEB in rat brain slices (autoradiography), α4β2 sites. Also noted: from tissue; host or cells: brain of the living rat (PET). The note with it: p-toluenesulfonate salt. The method, then:
as §1, §2, §3

Where [16] appears, read: rhesus monkey PET, 155 MBq i.v.

T3 sequence (P09483 31-630): as the sequence (P09483 31-630) above
T3 sequence (P12390 25-500): as the sequence (P12390 25-500) above
T2 sequence (P09483 31-630): as the sequence (P09483 31-630) above
T2 sequence (P12390 25-500): as the sequence (P12390 25-500) above
Chain of α4β2 receptor sites (P09483 31-630): as the sequence (P09483 31-630) above
Chain of α4β2 receptor sites (P12390 25-500): as the sequence (P12390 25-500) above
Chain of α4β2 nAChRs (Homo sapiens, UniProt P17787+P43681) (P43681 29-627 limits assumed): as the sequence (P43681 29-627 limits assumed) above
Chain of α4β2 nAChRs (Homo sapiens, UniProt P17787+P43681) (P17787 26-502): as the sequence (P17787 26-502) above
T6 sequence (P04757 26-499): as the sequence (P04757 26-499) above
T6 sequence (P12392 21-495): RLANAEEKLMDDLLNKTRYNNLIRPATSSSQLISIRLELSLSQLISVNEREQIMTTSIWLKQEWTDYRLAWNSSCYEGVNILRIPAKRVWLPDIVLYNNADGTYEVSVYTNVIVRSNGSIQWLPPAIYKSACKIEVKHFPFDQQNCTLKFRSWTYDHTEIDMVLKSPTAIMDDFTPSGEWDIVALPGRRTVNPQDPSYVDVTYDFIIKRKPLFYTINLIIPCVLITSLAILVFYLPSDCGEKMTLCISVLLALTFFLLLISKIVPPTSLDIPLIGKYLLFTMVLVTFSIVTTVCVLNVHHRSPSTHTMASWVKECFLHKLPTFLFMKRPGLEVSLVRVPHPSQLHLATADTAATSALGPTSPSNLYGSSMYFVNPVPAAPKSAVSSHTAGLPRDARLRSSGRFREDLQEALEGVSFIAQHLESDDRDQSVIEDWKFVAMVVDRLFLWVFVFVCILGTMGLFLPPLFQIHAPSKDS
T4 sequence (P09483 31-630): as the sequence (P09483 31-630) above
T4 sequence (P12390 25-500): as the sequence (P12390 25-500) above

As for `[18F]c1ncccc1OC[C@@H]1CCN1` [2-FA85380, 2-18F-fluoro-3-(2(S)-azetidinylmethoxy)pyridine], in data set [1], the “time to reach pseudoequilibrium” value is 4 to 6 h.
Regarding `Ic1cncc(OC[C@@H]2CCN2)c1` [5-IA85380], the scanning time required entry in [2] was “over 6 hrs”.
For `[18F]c1ncc(I)cc1OC[C@@H]1C=CCN1` [18F-Niofene, 2-^18F-5-iodo-3-[2-(S)-3,4-dehydropyrrolinylmethoxy]pyridine], in [3], the TH/CB at pseudoequilibrium was above 2.
For the compound `[18F]CCCc1cncc(OC[C@@H]2CCCN2)c1` [18F-nifrolidine, 5-(3-18F-fluoropropyl)-3-(2-(S)-pyrrolidinylmethoxy)pyridine], in data set [4] (rat, 2 min), the “Thalamus-to-cerebellum ratio, Control” value is on record as 1.30; the “% ID/g Blood” value is 0.25 % ID/g; the “% ID/g Cerebellum” value came out at 0.24 ± 0.03 % ID/g; the “% ID/g Cortex” value turned out to be 0.21 ± 0.04 % ID/g. Also, the “% ID/g Thalamus” value in data set [4] (rat, 2 min) turned out to be 0.26 ± 0.05 % ID/g. In [4] (rat, 60 min), the “Thalamus-to-cerebellum ratio, Control” value worked out at 3.08; the “% ID/g Blood” value is listed as 0.14 ± 0.03 % ID/g; the “% ID/g Cerebellum” value is given as 0.12 ± 0.02 % ID/g; the “% ID/g Cortex” value worked out at 0.25 ± 0.03 % ID/g. Besides, the “% ID/g Thalamus” value in data set [4] (rat, 60 min) is given as above 0.3 % ID/g. Besides, in data set [4] (rat, 60 min, nicotine ditartarate 10 mg/kg s.c. 5 min before 18F-nifrolidine), the “Thalamus-to-cerebellum ratio, Before nicotine” value was determined as 1.8. In data set [4] (rat, 120 min), the “Thalamus-to-cerebellum ratio, Control” value stood at 1.40; the “% ID/g Blood” value was below 0.03 % ID/g; the “% ID/g Cerebellum” value amounted to 0.10 ± 0.02 % ID/g; the “% ID/g Cortex” value is reported as 0.13 ± 0.04 % ID/g. For the same compound, the “% ID/g Thalamus” value in data set [4] (rat, 120 min) stood at 0.14 ± 0.03 % ID/g. In data set [4] (rat, 2 min, listed as 18F-NIFROLIDINE), the “% ID/g Blood” value is on record as 0.25 ± 0.09 % ID/g. Also, in data set [4] (rat, 60 min, listed as 18F-NIFROLIDINE), the “% ID/g Thalamus” value came to 0.37 ± 0.07 % ID/g. For the same compound, the “% ID/g Blood” value in data set [4] (rat, 120 min, listed as 18F-NIFROLIDINE) was 0.04 ± 0.01 % ID/g. For the same compound, the blood-brain barrier penetration result in data set [4] (rodents, in vivo) is on record as “able to cross the blood-brain barrier”. Also, in data set [5] (anesthetized rhesus monkey, 155 MBq), the vital signs entry was “did not exhibit any unusual deviations from the baseline values”. Also, in [5] (rhesus monkey PET), the “time of maximal binding in the thalamus following injection” value was above 70 min, the “time to approach transient equilibrium” value is “about 2.5 hrs” and the “time to plateauing of the thalamus-to-Cb ratio” value is reported as 150 min. In addition, in [5] (setting [16]), the “selective maximal uptake in AVT and AMT” value was determined as 0.011 % ID/mL; the “uptake in VLT” value is 0.10 % ID/mL. Besides, in data set [5] (rhesus monkey PET, about 140 min after injection), the “ratio between the thalamus and the Cb” value was “approximately 1.7”. Moreover, in [5] (rhesus monkey PET, in 120 min), the “cortical regions to Cb ratio” value came to 1.3 and the “thalamus-to-Cb ratio (plateau)” value is 1.7. Moreover, the “binding in cerebellum as % of that found in the AV” value in data set [6] (horizontal rat brain slices) is on record as “approximately 8%”. For the same compound, the “order of binding in brain regions” value in data set [6] (horizontal slices) is recorded as “thalamus>Ctx>striata>cerebellum”.
With `Ic1cncc(OC[C@@H]2C=CCN2)c1` [Niodene, 3-iodo-5-[2-(S)-3-pyrrolinylmethoxy]pyridine], in data set [7], the inhibition constant (Ki) turned out to be 0.27 nM. In [8], the “displacement of 18F-nifene bound to α4β2 receptors” value is listed as above 95%.
For `Fc1ncc(I)cc1OC[C@@H]1C=CCN1` [Niofene, 2-Fluoro-5-iodo-3-[2-(S)-3,4-dehydropyrrolinylmethoxy]pyridine], the affinity entry in data set [9] is given as “subnanomolar”.
For `[18F]c1ncccc1OC[C@@H]1C=CCN1` [^18F-Nifene, 2-[^18F]fluoro-3-[2-(S)-pyrrolinyl-3,4-dehydromethoxy]pyridine], the “reversal of binding by nicotine” value in data set [10] is “rapidly reverse”.
Consider `[123I]c1cncc(OCC2C=CCN2)c1` (centres unmarked) [^123I-niodene], for which, in [11], the “cortex to cerebellum binding ratio” value amounted to 1.6 and the “thalamus to cerebellum binding ratio” value stood at 4.
With `FCCCc1cncc(OC[C@@H]2CCCN2)c1` [nifrolidine, 5-(3′-fluoropropyl)-3-(2-(S)-pyrrolidinylmethoxy)-pyridine], in [12], the “affinity for α7 sites (displacement of 125I-α-bungaratoxin)” value is “no measureable displacement and weak”. Further, the Ki is above 30 nM in data set [13], above 30 nM in data set [14] and 2.89 nM in data set [15].

One may read the Ki as a dissociation constant, usually derived from enzyme kinetics or from competition with a known ligand.
